US11504386B2, “Preparation method for various novel fucosyl oligosaccharides and use thereof” (Korea University Research and Business Foundation, priority 2017, dated 2022)

How the values were obtained:
[1] = tested on: Salmonella enterica serovar typhimurium; assay: Capability of pathogenic microorganism to ferment FGal (Salmonella); type: cell-based; conditions: medium with 3 g/L purified FGal, 37° C., FIG. 9
Description: (§1) To verify the prebiotic effect of FGal, the cell growth of strains such as Bifidobacterium longum subsp. infantis ATCC 15697 and Bifidobacterium bifidum DSM 20082 was monitored. In addition, to conduct a test for the capabilities of pathogenic microorganisms to ferment FGal, the cell growth of strains such as E. coli O1:K1:H7 and Salmonella enterica serovar typhimurium was monitored. At this time, the medium contained 10 g/L of BactoPeptone, 5 g/L of yeast extract, 2 g/L of K2HPO4 (anhydrous), 5 g/L of Na acetate (anhydrous), 2 g/L of NH4 citrate tribasic, 0.2 g/L of Mg sulfate heptahydrate, 0.05 g/L of Mn sulfate, 1 mL/L of Tween 80 (polysorbate 80), 0.5 g/L of cysteine, and 3 g/L of purified FGal, and the strains were cultured at 37° C.

[2] = tested on: Bifidobacterium longum subsp. infantis ATCC 15697; assay: Prebiotic effect: cell growth and metabolism of FGal by Bifidobacterium longum subsp. infantis; type: cell-based; conditions: medium with 3 g/L purified FGal, 37° C., FIG. 8
Description: as §1

[3] = tested on: Bifidobacterium bifidum DSM 20082; assay: Prebiotic effect: cell growth and metabolism of FGal by Bifidobacterium bifidum; type: cell-based; conditions: medium with 3 g/L purified FGal, 37° C., FIG. 8
Description: as §1

E. coli O1:K1:H7 = assay: Capability of pathogenic microorganism to ferment FGal (E. coli); type: cell-based; conditions: medium with 3 g/L purified FGal, 37° C., FIG. 9
Description: as §1

hippocampal neurons = hippocampal neurons (brain neural cells) treated with FGal; stated as known; cited from earlier work

C[C@@H]1O[C@@H](O[C@H]2C(O)O[C@H](CO)[C@H](O)[C@@H]2O)[C@@H](O)[C@H](O)[C@@H]1O (stereo partly shown) [FGal, 2′-fucosylgalactose]
metabolism of FGal by pathogenic microorganism [1]: unable to metabolize | metabolism (fermentation) of FGal by the strain [2]: decomposed FGal into galactose and fucose through intracellular fucosidase and used both | metabolism (fermentation) of FGal by the strain ([2]; listed as 2-fucosylgalactose): decomposes 2-fucosylgalactose into galactose and fucose through intracellular fucosidase and uses both | metabolism (fermentation) of FGal by the strain [3]: first decomposed FGal into fucose and galactose extracellularly, and then metabolized a small amount of galactose | metabolism (fermentation) of FGal by the strain ([3]; listed as 2-fucosylgalactose): extracellularly decomposes 2-fucosylgalactose into galactose and fucose, and then uses only galactose | metabolism of FGal by pathogenic microorganism (E. coli O1:K1:H7): unable to metabolize | growth of nerve cells (hippocampal neurons): promotes the growth of nerve cells
